From patent US20180282323A1, “Mesoionic imidazole derivatives as insecticides” (BAYER CROPSCIENCE AKTIENGESELLSCHAFT, priority 2015, published 2018)

Key:
Boophilus microplus = Boophilus microplus injection test; assay type: in vivo; settings: application rate 20 μg/animal, assessed after 7 days by laying of fertile eggs
Protocol: Boophilus microplus—Injection Test Solvent: dimethyl sulphoxide
To produce a suitable active ingredient formulation, 10 mg of active ingredient are mixed with 0.5 ml of solvent and the concentrate is diluted with solvent to the desired concentration.
1 μl of the active ingredient solution is injected into the abdomen of 5 engorged adult female cattle ticks (Boophilus microplus). The animals are transferred into dishes and kept in a climate-controlled room.
Efficacy is assessed after 7 days by laying of fertile eggs. Eggs which are not visibly fertile are stored in a climate-controlled cabinet until the larvae hatch after about 42 days. An efficacy of 100% means that none of the ticks has laid any fertile eggs; 0% means that all the eggs are fertile.

Myzus persicae [1] = experiment: Myzus persicae spray test (Chinese cabbage leaf discs); assay type: in vivo; settings: application rate 500 g/ha, after 6 days
In short: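 Active ingredient was formulated in acetone/DMF and diluted with water containing 1000 ppm emulsifier. Chinese cabbage leaf discs infested with all aphid stages were sprayed, and % kill was scored after 6 days (100% = all aphids dead).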

Myzus persicae [2] = experiment: Myzus persicae oral test; assay type: in vivo; settings: application rate 20 ppm, oral uptake through parafilm, after 5 days
In short: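 Oral feeding format: mixed-stage Myzus persicae imbibe acetone/water compound formulation in sugared IPL41 medium through parafilm. Efficacy assessed as percent aphids killed at day 5.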

[3] = log P by HPLC on reversed-phase column (EEC directive 79/831 Annex V.A8); assay type: physicochemical; settings: for log p: HPLC on reversed-phase column (footnote a); for log p a): HPLC on reversed-phase column
In short: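 Reversed-phase (C18) HPLC at 43° C, following EEC directive 79/831 Annex V.A8.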

Diabrotica balteata = Diabrotica balteata spray test; assay type: in vivo; settings: application rate 160 μg/well, wheat grains with beetle larvae, after 7 days
Protocol: Diabrotica balteata—Spray Test Solvent: 78 parts by weight of acetone • • 1.5 parts by weight of dimethylformamide Emulsifier: alkylaryl polyglycol ether
(§1) To produce a suitable active ingredient formulation, 1 part by weight of active ingredient is dissolved with the stated parts by weight of solvent and made up with water containing an emulsifier concentration of 1000 ppm until the desired concentration is attained. To produce further test concentrations, the formulation is diluted with emulsifier-containing water.
Pre-swollen wheat grains (Triticum aestivum) are incubated in a multiwell plate filled with agar and a little water for one day (5 seed grains per cavity). The germinated wheat grains are sprayed with an active ingredient formulation of the desired concentration. Subsequently, each cavity is infected with 10-20 beetle larvae of Diabrotica balteata.
After 7 days, the efficacy in % is determined. 100% means that all wheat plants have grown as in the untreated, uninfected control; 0% means that no wheat plant has grown.

Lucilia cuprina = Lucilia cuprina test; assay type: in vivo; settings: application rate 100 ppm, L1 larvae, after 2 days
Protocol: Lucilia cuprina Test Solvent: dimethyl sulphoxide
To produce a suitable active ingredient formulation, 10 mg of active ingredient are mixed with 0.5 ml of dimethyl sulphoxide, and the concentrate is diluted with water to the desired concentration.
About 20 L1 larvae of the Australian sheep blowfly (Lucilia cuprina) are transferred into a test vessel containing minced horsemeat and the active ingredient formulation of the desired concentration.
After 2 days, the kill in % is determined. 100% means that all the larvae have been killed; 0% means that no larvae have been killed.

Phaedon cochleariae = Phaedon cochleariae spray test; assay type: in vivo; settings: application rate 500 g/ha, Chinese cabbage leaf discs, larvae, after 7 days
Protocol: Phaedon cochleariae—Spray Test Solvent: 78.0 parts by weight of acetone • • 1.5 parts by weight of dimethylformamide Emulsifier: alkylaryl polyglycol ether
as §1
Discs of Chinese cabbage leaves (Brassica pekinensis) are sprayed with an active ingredient formulation of the desired concentration and, after drying, populated with larvae of the mustard beetle (Phaedon cochleariae).
After 7 days, the efficacy in % is determined. 100% means that all the beetle larvae have been killed; 0% means that no beetle larvae have been killed.

Meloidogyne incognita = Meloidogyne incognita test; assay type: in vivo; settings: application rate 20 ppm, formation of galls on lettuce after 14 days
Protocol: Meloidogyne incognita Test Solvent: 125.0 parts by weight of acetone
To produce a suitable preparation of active ingredient, 1 part by weight of active ingredient is mixed with the stated amount of solvent and the concentrate is diluted with water to the desired concentration.
Vessels are filled with sand, active ingredient solution, an egg/larvae suspension of the southern root-knot nematode (Meloidogyne incognita) and lettuce seeds. The lettuce seeds germinate and the plants develop. The galls develop on the roots.
After 14 days, the nematicidal efficacy in % is determined by the formation of galls. 100% means that no galls were found; 0% means that the number of galls on the treated plants corresponds to the untreated control.

Ctenocephalides felis = Ctenocephalides felis in vitro contact test with adult cat fleas; assay type: in vivo; settings: application rate 5 μg/cm^2, after 48 h, adult cat fleas dead or moribund
Protocol: Ctenocephalides felis—In Vitro Contact Tests with Adult Cat Fleas
For the coating of the test tubes, 9 mg of active ingredient are first dissolved in 1 ml of acetone p.a. and then diluted to the desired concentration with acetone p.a. 250 μl of the solution are distributed homogeneously on the inner walls and the base of a 25 ml test tube by turning and rocking on an orbital shaker (rocking rotation at 30 rpm for 2 h). With 900 ppm of active ingredient solution and internal surface area 44.7 cm^2, given homogeneous distribution, an area-based dose of 5 μg/cm^2 is achieved.
After the solvent has evaporated off, the tubes are populated with 5-10 adult cat fleas (Ctenocephalides felis), sealed with a perforated plastic lid and incubated in a horizontal position at room temperature and ambient humidity. After 48 h, efficacy is determined. To this end, the test tubes are stood upright and the fleas are knocked to the base of the tube. Fleas which remain motionless at the base or move in an uncoordinated manner are considered to be dead or moribund.
100% efficacy means that all the fleas were dead or moribund. 0% efficacy means that no fleas were harmed.

Myzus persicae [4] = experiment: Myzus persicae spray test (bell pepper plants); assay type: in vivo; settings: application rate 100 ppm, after 6 days
Protocol: Myzus persicae—Spray Test Solvent: 14 parts by weight of dimethylformamide Emulsifier: alkylaryl polyglycol ether
as §1, with “water. If the addition of ammonium salts or/and penetrants is required, these are each added in a concentration of 1000 ppm to the formulation solution.” for “water.”
Bell pepper plants (Capsicum annuum) severely infested with the green peach aphid (Myzus persicae) are treated by spraying with the active ingredient formulation in the desired concentration.
After 6 days, the kill in % is determined. 100% means that all of the aphids have been killed; 0% means that none of the aphids have been killed.

Molecule `Cc1ccn(CC(=O)c2c([O-])n(Cc3cnc(Cl)s3)c3cccc[n+]23)n1` [Example I-1-012] has an efficacy (Boophilus microplus) of 100%, an efficacy (Myzus persicae [1]) of 90% and an efficacy (Myzus persicae [2]) of 100%. It also gave a log p [3] of 1.63.
In the case of `CC(C)OCC(=O)c1c([O-])n(Cc2ccc(Cl)nc2)c2cccc[n+]12` [Example I-1-016], the efficacy (Boophilus microplus) was 100%, the efficacy (Myzus persicae [1]) was 100% and the efficacy (Myzus persicae [2]) was 100%. It also gave a log p [3] of 1.67.
Work on `CCOCC(=O)c1c([O-])n(Cc2ccc(Cl)nc2)c2cccc[n+]12` [Example I-1-020] yielded an efficacy (Boophilus microplus) of 80%, an efficacy (Diabrotica balteata) of 100% and an efficacy (Myzus persicae [1]) of 90%. It also gave an efficacy (Myzus persicae [2]) of 100% and a log p [3] of 1.39.
In the case of `Cc1cnn(CC(=O)c2c([O-])n(Cc3cnc(Cl)s3)c3cccc[n+]23)c1` [Example I-1-049], the efficacy (Boophilus microplus) was 80%, the “efficacy (kill in %)” value (Lucilia cuprina) was 100% and the efficacy (Myzus persicae [1]) was 90%. For the same molecule, the efficacy (Myzus persicae [2]) was 100% and the log p [3] was 1.72.
`CSc1ccn(CC(=O)c2c([O-])n(Cc3ccc(Cl)nc3)c3cccc[n+]23)n1` [Example I-1-054] showed an efficacy (Boophilus microplus) of 100%, an efficacy (Myzus persicae [1]) of 100% and an efficacy (Myzus persicae [2]) of 100%. The log p [3] was 1.35.
Molecule `COc1cnn(CC(=O)c2c([O-])n(Cc3cnc(Cl)s3)c3c(C)ccc[n+]23)c1` [Example I-1-094] has an efficacy (Phaedon cochleariae) of 100% and a log p [3] of 1.75.
For `CCOCC(=O)c1c([O-])n(Cc2ccc(Cl)nc2)c2c(Cl)ccc[n+]12` [Example I-1-116], the nematicidal efficacy (Meloidogyne incognita) was 90%, the efficacy (Myzus persicae [2]) was 100% and the log p [3] was 1.78.
Molecule `O=C(NCC1CC1)c1c([O-])n(Cc2cnc(Cl)s2)c2cccc[n+]12` [Example I-1-143] has an efficacy (Ctenocephalides felis) of 100%, an efficacy (Diabrotica balteata) of 100% and a nematicidal efficacy (Meloidogyne incognita) of 90%. It also gave a log p [3] of 1.99.
For `O=C(Nc1ccccc1)c1c([O-])n(Cc2cnc(Cl)s2)c2cccc[n+]12` [Example I-1-145], the “efficacy (kill in %)” value (Lucilia cuprina) was 100%, the efficacy (Diabrotica balteata) was 100% and the efficacy (Myzus persicae [2]) was 100%. For the same molecule, the “efficacy (kill in %)” value (Myzus persicae [4]) was 100% and the log p [3] was 2.73.
Molecule `CC(C)CNC(=O)c1c([O-])n(Cc2cnc(Cl)s2)c2cccc[n+]12` [Example I-1-147] has an efficacy (Ctenocephalides felis) of 80%, an efficacy (Diabrotica balteata) of 100% and a nematicidal efficacy (Meloidogyne incognita) of 90%. For the same molecule, the efficacy (Myzus persicae [2]) was 100%, the “efficacy (kill in %)” value (Myzus persicae [4]) was 100% and the log p [3] was 2.29.
`O=C(NC1CC1)c1c([O-])n(Cc2cncnc2)c2cccc[n+]12` [Example I-1-152] showed an efficacy (Boophilus microplus) of 80%, an efficacy (Myzus persicae [1]) of 90% and an efficacy (Myzus persicae [2]) of 100%. The log p [3] was 0.84.
With `CC(c1ccc(Cl)nc1)n1c([O-])c(C(=O)CCl)[n+]2ccccc12` (centres unmarked) [Example I-1-161] the nematicidal efficacy (Meloidogyne incognita) was 90%, the efficacy (Myzus persicae [2]) was 100% and the log p [3] was 1.75.
With `COCC(=O)c1c([O-])n(Cc2ccc(Cl)nc2)c2ccc(F)c[n+]12` [Example I-1-165] the efficacy (Boophilus microplus) was 100%, the efficacy (Myzus persicae [1]) was 90% and the efficacy (Myzus persicae [2]) was 100%. It also gave a log p [3] of 1.39.
Work on `Cc1ccc[n+]2c(C(=O)NCc3ccc(Cl)cc3)c([O-])n(Cc3ccc(Cl)nc3)c12` [Example I-1-176] yielded a nematicidal efficacy (Meloidogyne incognita) of 90% and a log p [3] of 2.92.
Molecule `O=C(NC1CC1)c1c([O-])n(Cc2ccc(Cl)nc2)c2c(OC(F)(F)F)ccc[n+]12` [Example I-1-196] has a nematicidal efficacy (Meloidogyne incognita) of 90% and a log p [3] of 2.33.
With `CC(c1ccc(Cl)nc1)n1c([O-])c(C(=O)NC2CC2)[n+]2ccccc12` (centres unmarked) [Example I-1-202] the efficacy (Boophilus microplus) was 80%, the “efficacy (kill in %)” value (Lucilia cuprina) was 100% and the efficacy (Diabrotica balteata) was 80%. The efficacy (Myzus persicae [2]) was 100%, the “efficacy (kill in %)” value (Myzus persicae [4]) was 90% and the “log p a)” value [3] was 1.75.
With `Cc1cnc(Cn2c([O-])c(C(=O)NC3CC3)[n+]3ccccc23)cn1` [Example I-1-217] the efficacy (Boophilus microplus) was 80%, the efficacy (Myzus persicae [1]) was 100% and the efficacy (Myzus persicae [2]) was 100%. For the same molecule, the “log p a)” value [3] was 1.13.
In the case of `Cc1ccccc1NC(=O)c1c([O-])n(Cc2cnc(Cl)s2)c2cccc[n+]12` [Example I-1-239], the efficacy (Ctenocephalides felis) was 100%, the efficacy (Myzus persicae [2]) was 100% and the “log p a)” value [3] was 3.03.
With `COc1ccc[n+]2c(C(=O)NC3CC3)c([O-])n(Cc3cnc(Cl)s3)c12` [Example I-1-240] the efficacy (Ctenocephalides felis) was 100%, the efficacy (Myzus persicae [2]) was 100% and the “log p a)” value [3] was 1.96.
With `Cc1ccc(Cn2c([O-])c(C(=O)NC3CC3)[n+]3ccccc23)cn1` [Example I-1-243] the efficacy (Ctenocephalides felis) was 100%, the efficacy (Myzus persicae [2]) was 100% and the “log p a)” value [3] was 0.81.
With `CC(c1cnc(Cl)s1)n1c([O-])c(C(=O)NC2CC2)[n+]2ccccc12` (centres unmarked) [Example I-1-254] the efficacy (Boophilus microplus) was 80%, the “efficacy (kill in %)” value (Lucilia cuprina) was 100% and the efficacy (Diabrotica balteata) was 100%. The efficacy (Myzus persicae [1]) was 90%, the efficacy (Myzus persicae [2]) was 100% and the “log p a)” value [3] was 1.94.
With `Cc1ccc[n+]2c(C(=O)Nc3c(F)cccc3Cl)c([O-])n(Cc3cnc(Cl)s3)c12` [Example I-1-276] the efficacy (Diabrotica balteata) was 100%, the nematicidal efficacy (Meloidogyne incognita) was 90% and the efficacy (Myzus persicae [1]) was 90%. The efficacy (Myzus persicae [2]) was 100% and the “log p a)” value [3] was 2.93.
`O=C(Nc1c(Cl)cccc1Cl)c1c([O-])n(Cc2ccc(Cl)nc2)c2cccc[n+]12` [Example I-1-314] showed a nematicidal efficacy (Meloidogyne incognita) of 90%, an efficacy (Myzus persicae [1]) of 100% and an efficacy (Myzus persicae [2]) of 100%. For the same molecule, the “log p a)” value [3] was 2.59.
For `O=C(Nc1c(F)cccc1Cl)c1c([O-])n(Cc2ccc(Cl)nc2)c2cccc[n+]12` [Example I-1-316], the nematicidal efficacy (Meloidogyne incognita) was 90%, the efficacy (Myzus persicae [1]) was 100% and the efficacy (Myzus persicae [2]) was 100%. The “log p a)” value [3] was 2.44.
For `Cc1cccc(C)c1NC(=O)c1c([O-])n(Cc2cnc(Cl)s2)c2cccc[n+]12` [Example I-1-321], the nematicidal efficacy (Meloidogyne incognita) was 90%, the efficacy (Myzus persicae [2]) was 100% and the “log p a)” value [3] was 2.76.
With `COc1cccc(F)c1NC(=O)c1c([O-])n(Cc2cnc(Cl)s2)c2cccc[n+]12` [Example I-1-323] the nematicidal efficacy (Meloidogyne incognita) was 90%, the efficacy (Myzus persicae [2]) was 100% and the “log p a)” value [3] was 2.27.
